Source: patent US7163589B2 (priority 2001, dated 2007)

Tested on: Mouse immunoglobulin (IgG)

## COC(F)(F)C(F)(F)C(F)(F)C(F)(F)F [HFE-7100, methyl nonafluorobutyl ether]
  Effect on protein conformation (denaturation): changes the conformation of the proteins
